Experimental data from ChEMBL document CHEMBL4229402, “Kava analogues as agents for treatment of periodontal diseases: Synthesis and initial biological evaluation” (Bioorg Med Chem Lett, 2018).
Calls of active or inactive are those of the source. No cut-off for these calls is given here.

Experiments:
BMDM [1] = assay: Antiperiodontic activity in mouse bone marrow macrophages assessed as reduction in Porphyromonas gingivalis-induced TNFalpha levels at 100 ug/ml after 4 hrs by ELISA; type: functional
BMDM [2] = assay: Antiperiodontic activity in mouse bone marrow macrophages assessed as reduction in Porphyromonas gingivalis-induced TNFalpha levels at 20 to 100 ug/ml after 4 hrs by ELISA; type: functional

Compound: COC1=CC(=O)O[C@@H](/C=C/c2ccccc2)C1
- Activity (BMDM [1]): Active

Compound: CCOC(=O)C1C(=O)C=C(OC(=O)c2ccccc2)CC1(C)C (configuration not stated)
- Activity (BMDM [2]): Active
